Drawing on patent publication US20240368173A1, “TRICYCLIC GPR65 MODULATORS” (PATHIOS THERAPEUTICS LIMITED, priority 2021, published 2024), this text covers IC50 for 26 compounds.

One may read the IC50 as the midpoint of a concentration-inhibition curve.

SMILES strings stand for the structures. Read-outs that look alike come from different tables or passages of the source.

In the test the target is human recombinant GPR65 (Homo sapiens, UniProt Q8IYL9). Description: Human GPR65 cAMP HTRF antagonist assay. The format is cell-based. In a few lines: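 1321N1 astrocytoma cells stably expressing hrGPR65, with IBMX and EDTA, were preincubated with compound 30 min at room temperature, then acid-activated at assay pH 7.2 (control pH 7.9) for 30 min. cAMP read by HTRF (665/620 nm ratio); IC50 from 4-parameter fit normalised to high/low controls.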
Sequence of human recombinant GPR65 (Q8IYL9 whole entry): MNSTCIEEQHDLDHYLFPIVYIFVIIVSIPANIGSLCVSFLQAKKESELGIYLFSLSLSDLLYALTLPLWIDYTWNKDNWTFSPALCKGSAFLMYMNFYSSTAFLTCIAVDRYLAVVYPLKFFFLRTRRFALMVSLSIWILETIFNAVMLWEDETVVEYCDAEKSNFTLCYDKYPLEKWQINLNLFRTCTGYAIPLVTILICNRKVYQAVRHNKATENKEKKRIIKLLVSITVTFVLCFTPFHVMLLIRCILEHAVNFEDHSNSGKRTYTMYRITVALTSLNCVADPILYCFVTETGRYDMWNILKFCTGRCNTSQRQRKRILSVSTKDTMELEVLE
(In general: TR-FRET usually uses a lanthanide donor and a delayed reading to cut background.)

Where [1] appears, read: 1321N1-hrGPR65 cells, cAMP HTRF, assay pH 7.2, read-out: hGPR65 IC50 (Activity of selected compounds according to the invention).

For `O=C(Nc1cc(Cl)c(-c2cc(F)cnc2F)cc1F)N1[C@H]2CC[C@@H]1c1n[nH]c(=O)cc1C2` [Compound 182, (6S,9R)-N-(5-Chloro-4-(2,5-difluoropyridin-3-yl)-2-fluorophenyl)-3-oxo-3,5,6,7,8,9-hexahydro-2H-6,9-epiminocyclohepta[c]pyridazine-10-carboxamide], the IC50 is less than 500 nM.

Regarding `COc1ccc(-c2cc(F)c(NC(=O)N3[C@H]4CC[C@@H]3c3c[nH]c(=O)cc3C4)cc2Cl)cn1` [Compound 184, (6S,9R)-N-(5-Chloro-2-fluoro-4-(6-methoxypyridin-3-yl)phenyl)-3-oxo-3,5,6,7,8,9-hexahydro-2H-6,9-epiminocyclohepta[c]pyridine-10-carboxamide], the half-inhibitory concentration (IC50) is less than 500 nM.

Consider `COc1ccc(-c2cc(F)c(NC(=O)N3[C@H]4CC[C@@H]3c3ccnc(F)c3C4)cc2Cl)cn1` [Compound 185, (5R,8S)-N-(5-Chloro-2-fluoro-4-(6-methoxypyridin-3-yl)phenyl)-1-fluoro-6,7,8,9-tetrahydro-5H-5,8-epiminocyclohepta[c]pyridine-10-carboxamide], for which the concentration for half-maximal inhibition (IC50) was less than 500 nM.

In the case of `O=C(Nc1ccc2nsnc2c1)N1[C@H]2CC[C@@H]1c1n[nH]c(=O)cc1C2` [Compound 186, (6S,9R)—N-(benzo[c][1,2,5]thiadiazol-5-yl)-3-oxo-3,5,6,7,8,9-hexahydro-2H-6,9-epiminocyclohepta[c]pyridazine-10-carboxamide], the IC50 was in the range of 500 to 5000 nM.

Take `O=C(Nc1noc2ccccc12)N1[C@H]2CC[C@@H]1c1n[nH]c(=O)cc1C2` [Compound 187, (6S,9R)-N-(Benzo[d]isoxazol-3-yl)-3-oxo-3,5,6,7,8,9-hexahydro-2H-6,9-epiminocyclohepta[c]pyridazine-10-carboxamide]: the IC50 was in the range of 500 to 5000 nM.

Regarding `COC(=O)c1cncc(-c2cc(F)c(NC(=O)N3[C@H]4CC[C@@H]3c3n[nH]c(=O)cc3C4)cc2Cl)c1` [Compound 188, Methyl 5-(2-chloro-5-fluoro-4-((6S,9R)-3-oxo-3,5,6,7,8,9-hexahydro-2H-6,9-epiminocyclohepta[c]pyridazine-10-carboxamido)phenyl)nicotinate], the IC50 was less than 500 nM.

As for `O=C(Nc1cc(Cl)c(-c2cnc3nonc3c2)cc1F)N1[C@H]2CC[C@@H]1c1c[nH]c(=O)cc1C2` [Compound 189, (6S,9R)-N-(4-([1,2,5]oxadiazolo[3,4-b]pyridin-6-yl)-5-chloro-2-fluorophenyl)-3-oxo-3,5,6,7,8,9-hexahydro-2H-6,9-epiminocyclohepta[c]pyridine-10-carboxamide], the IC50 was less than 500 nM.

With `O=C(Nc1cc(Cl)c(-c2cnc3nonc3c2)cc1F)N1[C@H]2CC[C@@H]1c1ccnc(F)c1C2` [Compound 190, (5R,8S)-N-(4-([1,2,5]Oxadiazolo[3,4-b]pyridin-6-yl)-5-chloro-2-fluorophenyl)-1-fluoro-6,7,8,9-tetrahydro-5H-5,8-epiminocyclohepta[c]pyridine-10-carboxamide], the IC50 is less than 500 nM.

Consider `O=C(Nc1cc(Cl)c(-c2ccsn2)cc1F)N1[C@H]2CC[C@@H]1c1n[nH]c(=O)cc1C2` [Compound 191, (6S,9R)-N-(5-Chloro-2-fluoro-4-(isothiazol-3-yl)phenyl)-3-oxo-3,5,6,7,8,9-hexahydro-2H-6,9-epiminocyclohepta[c]pyridazine-10-carboxamide], for which the IC50 is less than 500 nM.

For the compound `COCc1ccncc1-c1cc(F)c(NC(=O)N2[C@H]3CC[C@@H]2c2n[nH]c(=O)cc2C3)cc1Cl` [Compound 192, (6S,9R)-N-(5-Chloro-2-fluoro-4-(4-(methoxymethyl)pyridin-3-yl)phenyl)-3-oxo-3,5,6,7,8,9-hexahydro-2H-6,9-epiminocyclohepta[c]pyridazine-10-carboxamide], under setting [1], the IC50 lay within 500 to 5000 nM.

`O=C(Nc1cc(Cl)c(C(F)(F)F)cc1F)N1[C@@H]2CC[C@H]1[C@H](F)c1c2ccnc1F` [Compound 193, (5R,8S,9R)-N-(5-Chloro-2-fluoro-4-(trifluoromethyl)phenyl)-1,9-difluoro-6,7,8,9-tetrahydro-5H-5,8-epiminocyclohepta[c]pyridine-10-carboxamide]: the IC50 was less than 500 nM.

Take `O=C(Nc1cc(Cl)c(C(F)(F)F)cc1F)N1[C@@H]2CC[C@H]1c1ccnc(F)c1C2` [Compound 194, (5S,8R)-N-(5-Chloro-2-fluoro-4-(trifluoromethyl)phenyl)-1-fluoro-6,7,8,9-tetrahydro-5H-5,8-epiminocyclohepta[c]pyridine-10-carboxamide]: the 50% inhibitory concentration (IC50) was less than 500 nM.

In the case of `O=C(Nc1cc(Cl)c(-c2ccccn2)cc1F)N1[C@H]2CC[C@@H]1c1n[nH]c(=O)cc1C2` [Compound 195, (6S,9R)-N-(5-Chloro-2-fluoro-4-(pyridin-2-yl)phenyl)-3-oxo-3,5,6,7,8,9-hexahydro-2H-6,9-epiminocyclohepta[c]pyridazine-10-carboxamide], the IC50 is less than 500 nM.

With `O=C(Nc1cc(Cl)c(-c2ccc3cnoc3c2)cc1F)N1[C@H]2CC[C@@H]1c1n[nH]c(=O)cc1C2` [Compound 196, (6S,9R)-N-(4-(Benzo[d]isoxazol-6-yl)-5-chloro-2-fluorophenyl)-3-oxo-3,5,6,7,8,9-hexahydro-2H-6,9-epiminocyclohepta[c]pyridazine-10-carboxamide], the IC50 was 500 to 5000 nM.

Consider `O=C(Nc1cc(Cl)c(-c2ccc3cncn3c2)cc1F)N1[C@H]2CC[C@@H]1c1n[nH]c(=O)cc1C2` [Compound 197, (6S,9R)-N-(5-Chloro-2-fluoro-4-(imidazo[1,5-a]pyridin-6-yl)phenyl)-3-oxo-3,5,6,7,8,9-hexahydro-2H-6,9-epiminocyclohepta[c]pyridazine-10-carboxamide], for which the IC50 was less than 500 nM.

As for `O=C(Nc1cc(Cl)c(-c2ccc3conc3c2)cc1F)N1[C@H]2CC[C@@H]1c1n[nH]c(=O)cc1C2` [Compound 198, (6S,9R)-N-(4-(Benzo[c]isoxazol-6-yl)-5-chloro-2-fluorophenyl)-3-oxo-3,5,6,7,8,9-hexahydro-2H-6,9-epiminocyclohepta[c]pyridazine-10-carboxamide], the half-inhibitory concentration (IC50) was less than 500 nM.

Regarding `COc1cc(-c2cc(F)c(NC(=O)N3[C@H]4CC[C@@H]3c3n[nH]c(=O)cc3C4)cc2Cl)ccn1` [Compound 199, (6S,9R)-N-(5-Chloro-2-fluoro-4-(2-methoxypyridin-4-yl)phenyl)-3-oxo-3,5,6,7,8,9-hexahydro-2H-6,9-epiminocyclohepta[c]pyridazine-10-carboxamide], the 50% inhibitory concentration (IC50) is less than 500 nM.

For the compound `O=C(Nc1cc(Cl)c(-c2cncc(F)c2)cc1F)N1[C@H]2CC[C@@H]1c1ccnc(F)c1C2` [Compound 200, (5R,8S)-N-(5-Chloro-2-fluoro-4-(5-fluoropyridin-3-yl)phenyl)-1-fluoro-6,7,8,9-tetrahydro-5H-5,8-epiminocyclohepta[c]pyridine-10-carboxamide], the 50% inhibitory concentration (IC50) was less than 500 nM.

Take `O=C(Nc1cc(Cl)c(-c2cncc(F)c2)cc1F)N1[C@H]2CC[C@@H]1c1c[nH]c(=O)cc1C2` [Compound 201, (6S,9R)-N-(5-Chloro-2-fluoro-4-(5-fluoropyridin-3-yl)phenyl)-3-oxo-3,5,6,7,8,9-hexahydro-2H-6,9-epiminocyclohepta[c]pyridine-10-carboxamide]: the IC50 was less than 500 nM.

Regarding `COc1ccc(-c2cc(F)c(NC(=O)N3[C@H]4CC[C@@H]3c3n[nH]c(=O)cc3C4)cc2Cl)c(F)n1` [Compound 202, (6S,9R)-N-(5-Chloro-2-fluoro-4-(2-fluoro-6-methoxypyridin-3-yl)phenyl)-3-oxo-3,5,6,7,8,9-hexahydro-2H-6,9-epiminocyclohepta[c]pyridazine-10-carboxamide], the half-inhibitory concentration (IC50) is less than 500 nM.

For `CS(=O)(=O)NCc1cccc(-c2cc(F)c(NC(=O)N3[C@H]4CC[C@@H]3c3n[nH]c(=O)cc3C4)cc2Cl)c1` [Compound 203, (6S,9R)-N-(2-Chloro-5-fluoro-3′-(methylsulfonamidomethyl)-[1,1′-biphenyl]-4-yl)-3-oxo-3,5,6,7,8,9-hexahydro-2H-6,9-epiminocyclohepta[c]pyridazine-10-carboxamide], the IC50 under setting [1] was in the range of 500 to 5000 nM.

As for `Cc1nc2ccc(-c3cc(F)c(NC(=O)N4[C@H]5CC[C@@H]4c4ccnc(F)c4C5)cc3Cl)cc2o1` [Compound 205, (5R,8S)-N-(5-Chloro-2-fluoro-4-(2-methylbenzo[d]oxazol-6-yl)phenyl)-1-fluoro-6,7,8,9-tetrahydro-5H-5,8-epiminocyclohepta[c]pyridine-10-carboxamide], the concentration for half-maximal inhibition (IC50) was less than 500 nM.

Turning to `Cc1nc2ccc(-c3cc(F)c(NC(=O)N4[C@H]5CC[C@@H]4c4c[nH]c(=O)cc4C5)cc3Cl)cc2o1` [Compound 206, (6S,9R)-N-(5-Chloro-2-fluoro-4-(2-methylbenzo[d]oxazol-6-yl)phenyl)-3-oxo-3,5,6,7,8,9-hexahydro-2H-6,9-epiminocyclohepta[c]pyridine-10-carboxamide], the IC50 was less than 500 nM.

`COc1ncc(-c2cc(F)c(NC(=O)N3[C@H]4CC[C@@H]3c3n[nH]c(=O)cc3C4)cc2Cl)cc1F` [Compound 207, (6S,9R)-N-(5-Chloro-2-fluoro-4-(5-fluoro-6-methoxypyridin-3-yl)phenyl)-3-oxo-3,5,6,7,8,9-hexahydro-2H-6,9-epiminocyclohepta[c]pyridazine-10-carboxamide]: the IC50 is less than 500 nM.

For `CCOc1ccc(-c2cc(F)c(NC(=O)N3[C@H]4CC[C@@H]3c3n[nH]c(=O)cc3C4)cc2Cl)cn1` [Compound 208, (6S,9R)-N-(5-Chloro-4-(6-ethoxypyridin-3-yl)-2-fluorophenyl)-3-oxo-3,5,6,7,8,9-hexahydro-2H-6,9-epiminocyclohepta[c]pyridazine-10-carboxamide], the half-maximal inhibitory concentration (IC50) is less than 500 nM.

Turning to `CC(C)Oc1ccc(-c2cc(F)c(NC(=O)N3[C@H]4CC[C@@H]3c3n[nH]c(=O)cc3C4)cc2Cl)cn1` [Compound 209, (6S,9R)-N-(5-Chloro-2-fluoro-4-(6-isopropoxypyridin-3-yl)phenyl)-3-oxo-3,5,6,7,8,9-hexahydro-2H-6,9-epiminocyclohepta[c]pyridazine-10-carboxamide], the 50% inhibitory concentration (IC50) was less than 500 nM.
